Test results taken from patent publication US9422248B2 (University of Iowa Research Foundation, priority 2012, dated 2016).
“And” between values parts separate entries of the source, which are not always exact repeats. Equal values may be shown once. Read-outs that look alike come from different tables or passages of the source.

Experiments:
[1] = system: maximal electroshock (MES) model; assay: maximal electroshock (MES) model; assay type: in vivo, mouse; conditions: for responders at 30 mg/kg / responders at 100 mg/kg / responders at 300 mg/kg: Mus musculus, MES; for responders at 30 mg/kg: 30 mg/kg ip; for responders at 30 mg/kg / responders at 300 mg/kg: read-out: number of animals protected/number of animals tested; for responders at 100 mg/kg: 100 mg/kg ip, read-out: number of animals protected/number of animals tested (converted); for responders at 300 mg/kg: 300 mg/kg ip
Description: (§1) All compounds (FIG. 1) were screened in three whole mouse models: the maximal electroshock model (MES), the scMET test (pentylenetetrazole, Metrazol), and the 6 Hz psychomotor seizure model of partial epilepsy (32 mA). Adult male CF No 1 albino mice (26-30 g) were used for the 6 Hz test and 18-25 g mice were used in the MES and scMet tests. The animals are housed, fed, and handled in a manner consistent with the recommendations in the National Council Publication, “Guide for the Care and Use of Laboratory Animals”. The animal studies were performed by the NINDS Anticonvulsant Screening Program under IACUC number 09-12014. All compounds were administered ip in polyethylene glycol, 30%.
(§2) The MES model, which generates generalized tonic-clonic seizures, involved pretreating mice with experimental compound, and administering 60 Hz of alternating current (50 mA) for 2 s via corneal electrodes. Prior to current administration, the animal's corneas were treated topically with 1% tetracaine. Animals are considered protected if the hindlimb tonic extensor component is absent. The scMET test was done by pretreating mice with experimental compound and administering 85 mg/kg Metrazol into the loose folds of the skin in the midline of the neck. Eighty-five mg/kg Metrazol is the dose that causes seizures in 97% (CD97) of control animals.

[2] = system: scMET model (pentylenetetrazole, Metrazol); assay: scMET test (subcutaneous Metrazol); assay type: in vivo, mouse; conditions: Mus musculus, scMET, read-out: number of animals protected/number of animals tested; for responders at 30 mg/kg: 30 mg/kg ip; for responders at 100 mg/kg: 100 mg/kg ip; for responders at 300 mg/kg: 300 mg/kg ip
Description: as §1, §2

6 Hz (32 mA) model = assay: 6 Hz (32 mA) psychomotor seizure model of partial epilepsy; assay type: in vivo, mouse; conditions: for Protective effects, number of animals protected/number of animals tested: 6 Hz (32 mA), 100 mg/kg ip
Description: as §1
The 6 Hz test (also known as the minimal clonic seizure, or psychomotor test) involved delivering a corneal stimulus of 32 mA for 3 s. This current elicits psychomotor seizures in 97% of untreated animals. Seizures consist of a minimal clonic phase followed by stereotyped automatistic behaviors. Animals not showing such behaviors were considered protected. Toxicity was determined by the rotorod test. For this test, the animal is placed on a rotorod at 6 rpm following dosing. The animal is considered toxic if it falls off the rotorod three times in a 1 min period. The ED50, TD50 and confidence intervals were determined by probit analysis.

rotorod test = assay: Toxicity by the rotorod test; assay type: in vivo
Description: All compounds (FIG. 1) were screened in three whole mouse models: the maximal electroshock model (MES), the scMET test (pentylenetetrazole, Metrazol), and the 6 Hz psychomotor seizure model of partial epilepsy (32 mA). Adult male CF No 1 albino mice (26-30 g) were used for the 6 Hz test and 18-25 g mice were used in the MES and scMet tests. The animals are housed, fed, and handled in a manner consistent with the recommendations in the National Council Publication, “Guide for the Care and Use of Laboratory Animals”. […] All compounds were administered ip in polyethylene glycol, 30%.
The 6 Hz test (also known as the minimal clonic seizure, or psychomotor test) involved delivering a corneal stimulus of 32 mA for 3 s. […] Seizures consist of a minimal clonic phase followed by stereotyped automatistic behaviors. Animals not showing such behaviors were considered protected. Toxicity was determined by the rotorod test. For this test, the animal is placed on a rotorod at 6 rpm following dosing. The animal is considered toxic if it falls off the rotorod three times in a 1 min period. The ED50, TD50 and confidence intervals were determined by probit analysis.

SMILES	responders at 30 mg/kg ([1]; 0.5 h) [%]	responders at 100 mg/kg ([1]; 0.5 h) [%]	responders at 100 mg/kg ([1]; 4 h) [%]	responders at 300 mg/kg ([1]; 0.5 h) [%]	responders at 300 mg/kg ([1]; 4 h) [%]	responders at 30 mg/kg ([2]; 0.5 h) [%]	responders at 30 mg/kg ([2]; 4 h) [%]	responders at 100 mg/kg ([2]; 0.5 h) [%]	responders at 100 mg/kg ([2]; 4 h) [%]	responders at 300 mg/kg ([2]; 0.5 h) [%]	responders at 300 mg/kg ([2]; 4 h) [%]	Protective effects, number of animals protected/number of animals tested (6 Hz (32 mA) model; 2 h)	Protective effects, number of animals protected/number of animals tested (6 Hz (32 mA) model; 4 h)	Toxicity, animals/number of animals tested (rotorod test; dose 100 mg/kg ip, 0.25 h)	Toxicity, animals/number of animals tested (rotorod test; dose 100 mg/kg ip, 0.5 h)	Toxicity, animals/number of animals tested (rotorod test; dose 100 mg/kg ip, 1 h)	Toxicity, animals/number of animals tested (rotorod test; dose 100 mg/kg ip, 2 h)	Toxicity, animals/number of animals tested (rotorod test; dose 100 mg/kg ip, 4 h)	other results
Cc1cc(C(O)C(F)(F)F)ccc1O (stereo not shown) [RM170, 2-Methyl-4-(2,2,2-trifluoro-1-hydroxy-ethyl)-phenol]	0	0	0	100	100	0	0	0	0	0	0	1/4	1/4	0/3	0/8	0/3	0/3	0/4	MES protection ([1]; 300 mg/kg dose): some protection; MES protection, time points after dosing ([1]; 300 mg/kg dose): protection at both 0.5 and 4 h; responders at 100 mg/kg ([1]; 0.25 h): 0%; responders at 100 mg/kg ([1]; 1 h): 0%; responders at 100 mg/kg ([1]; 2 h): 0%; responders at 100 mg/kg ([1]; 6 h): 0%; Protective effects, number of animals protected/number of animals tested (6 Hz (32 mA) model; 0.25 h): 0/4; Protective effects, number of animals protected/number of animals tested (6 Hz (32 mA) model; 0.5 h): 0/4; Protective effects, number of animals protected/number of animals tested (6 Hz (32 mA) model; 1 h): 2/4; animals in which seizures were inhibited (6 Hz (32 mA) model; 6 Hz, 100 mg/kg, any time point from 0.25 to 4 h): no more than 2 of 4; Toxicity, animals/number of animals tested (rotorod test; dose 100 mg/kg ip, 6 h): 0/3; Toxicity, animals/number of animals tested (rotorod test; dose 30 ip, 0.5 h): 0/4; Toxicity, animals/number of animals tested (rotorod test; dose 30 ip, 4 h): 0/2; Toxicity, animals/number of animals tested (rotorod test; dose 300 ip, 0.5 h): 0/4; Toxicity, animals/number of animals tested (rotorod test; dose 300 ip, 4 h): 0/2; evidence of toxicity (rotorod test; doses up to 300 mg/kg): Neither RM170 nor RM166 showed any evidence of toxicity
CCCc1cc(C(O)C(F)(F)F)cc(Br)c1O (stereo not shown) [RM1204, 2-Bromo-6-n-propyl-4-(2,2,2-trifluoro-1-hydroxy-ethyl)-phenol]	0	0	0	0	0	0	0	0	0	0	0	0/4	0/4	1/4	0/4	1/4	0/4	0/4	responders at 30 mg/kg ([1]; 4 h): 0%; MES protection ([1]; any dose (30-300 mg/kg ip)): no MES protection; Protective effects, number of animals protected/number of animals tested (6 Hz (32 mA) model; 0.25 h, 100 mg/kg): 4/4 and complete protection; Protective effects, number of animals protected/number of animals tested (6 Hz (32 mA) model; 0.5 h, 100 mg/kg): 4/4 and complete protection; Protective effects, number of animals protected/number of animals tested (6 Hz (32 mA) model; 1 h, 100 mg/kg): partial protection and 2/4; toxicity (rotorod test; mouse, in vivo): only low toxicity
